Source: article PMC7332385 (Journal of the American Society for Mass Spectrometry, 2020)
Read-outs that look alike come from different tables or passages of the source.

Key:
β-2-microglobulin (β2m) [1] = settings: read-out: Kd for Cu(II) bound to β2m, cited from earlier work
[2] = molecular target: Cu(II)-β2m (β-2-microglobulin) (Homo sapiens, UniProt P61769); experiment: CL-MS ligand titration of Cu; type: binding; settings: read-out: Cu(II)-β2m and EGCG Kd; DEPC (120 μM) labeling of the N-terminal amine; 30 μM β2m, 60 μM Cu(II); triplicate
Sequence of Cu(II)-β2m (β-2-microglobulin) (P61769 21-119): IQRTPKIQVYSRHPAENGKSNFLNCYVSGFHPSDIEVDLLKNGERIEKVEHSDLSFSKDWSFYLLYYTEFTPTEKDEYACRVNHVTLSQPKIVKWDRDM

β-2-microglobulin (β2m) [3] = settings: read-out: EGCG-β2m Kd; from size exclusion chromatography data; cited from earlier work

Row | SMILES | Kd (β-2-microglobulin (β2m) [1]; in the presence of EGCG) [µM] | Kd (β-2-microglobulin (β2m) [1]; without EGCG) [µM] | Kd [2] [µM] | Kd (β-2-microglobulin (β2m) [3]) [µM]
1 | O=S(=O)([O-])[O-].[Cu+2] [Cu(II), copper sulfate] | 49 | 3 | – | –
2 | O=C(O[C@@H]1Cc2c(O)cc(O)cc2O[C@@H]1c1cc(O)c(O)c(O)c1)c1cc(O)c(O)c(O)c1 [EGCG, epigallocatechin gallate] | – | – | 12 ± 5 | 6
